Test [1] has as its system C57BL/6J mice fed MFMC diet. The experiment in a line: Diet-induced hyperlipidemia: serum and liver TC/TG and FPLC lipoprotein profile in mice on MFMC diet. Format: in vivo. The settings on record: for TC levels in liver, mean / TC levels in the serum, mean / TG levels in liver, mean / TG levels in the serum, mean / TC levels in liver, individual mice / TC levels in the serum, individual mice / TG levels in liver, individual mice / TG levels in the serum, individual mice: 60 mg/kg/day (each agent) gavage once daily 6 weeks; for TC levels in liver, individual mice / TC levels in the serum, individual mice / TG levels in liver, individual mice / TG levels in the serum, individual mice: 60 mg/kg/day; for total cholesterol (TC) and triglyceride (TG) levels in both serum and liver / cholesterol contents in VLDL, LDL and HDL (FPLC serum lipoprotein profile): 6 weeks; for total cholesterol (TC) and triglyceride (TG) levels in both serum and liver: in words; for cholesterol contents in VLDL, LDL and HDL (FPLC serum lipoprotein profile): pooled serum. An excerpt: Male C57BL/6 mice (8-week-old) were obtained from Shanghai Laboratory Animal Company (SLAC) (Shanghai, China). Male Ldlr^−/− mice (8-week-old) were obtained from Nanjing Biomedical Research Institute of Nanjing University (Nanjing, China). Mice had ad libitum access to water and standard chow diet (SLAC) unless mentioned otherwise. Special diets included medium-fat-medium-cholesterol diet (chow diet with10% fat, 0.2% cholesterol and 0.5% sodium cholate, custom made in SLAC), and western diet (20% fat, 1.25% cholesterol, 0.5% sodium cholate, D12109C, Research Diets). Mice were maintained in a pathogen-free environment and kept on a 12-h light/dark schedule. Mice were gavaged as described in figure legends with saline containing 0.5% methyl cellulose and 0.5% Tween-80. All mice were used in accordance with the guidelines approved by the Institutional Animal Care and Use Committee of Wuhan University.
Mice were anesthetized and blood collection was performed. Serum was prepared from blood by centrifuging at 1500 × g for 10 min. Livers were harvested and homogenized in a 2:1 mixture of chloroform and methanol using Precellys 24 (Bertin). The organic phase was dried under N2 and liver lipids were reconstituted in ethanol. Total cholesterol and triglyceride levels in the serum and liver were determined using Cholesterol Assay Kit and Triglyceride Assay Kit (Shanghai Kehua Bio-engineering, China).
Serum lipoproteins were separated by FPLC (AKTA, GE Healthcare) using Superdex 75 10/300 GL (GE Healthcare) column. One hundred microliters pooled serum from five mice per group was diluted with 200 μl PBS, and loaded to the column. Fractions were eluted with PBS at a constant rate of 0.2 ml min^–1, and collected with 300 μl per tube. 100 μl fractions were used to quantify the concentration of total cholesterol level with the Amplex Red Cholesterol Assay Kit (Invitrogen). The cholesterol distribution curves of lipoproteins were done with GraphPad Prism 6 software.

The target of the next test is T1, HMGCR (Mus musculus, UniProt Q01237).
T1 construct: from tissue; host or cells: mouse liver (membrane fraction)
T1 sequence (Q01237 1-887): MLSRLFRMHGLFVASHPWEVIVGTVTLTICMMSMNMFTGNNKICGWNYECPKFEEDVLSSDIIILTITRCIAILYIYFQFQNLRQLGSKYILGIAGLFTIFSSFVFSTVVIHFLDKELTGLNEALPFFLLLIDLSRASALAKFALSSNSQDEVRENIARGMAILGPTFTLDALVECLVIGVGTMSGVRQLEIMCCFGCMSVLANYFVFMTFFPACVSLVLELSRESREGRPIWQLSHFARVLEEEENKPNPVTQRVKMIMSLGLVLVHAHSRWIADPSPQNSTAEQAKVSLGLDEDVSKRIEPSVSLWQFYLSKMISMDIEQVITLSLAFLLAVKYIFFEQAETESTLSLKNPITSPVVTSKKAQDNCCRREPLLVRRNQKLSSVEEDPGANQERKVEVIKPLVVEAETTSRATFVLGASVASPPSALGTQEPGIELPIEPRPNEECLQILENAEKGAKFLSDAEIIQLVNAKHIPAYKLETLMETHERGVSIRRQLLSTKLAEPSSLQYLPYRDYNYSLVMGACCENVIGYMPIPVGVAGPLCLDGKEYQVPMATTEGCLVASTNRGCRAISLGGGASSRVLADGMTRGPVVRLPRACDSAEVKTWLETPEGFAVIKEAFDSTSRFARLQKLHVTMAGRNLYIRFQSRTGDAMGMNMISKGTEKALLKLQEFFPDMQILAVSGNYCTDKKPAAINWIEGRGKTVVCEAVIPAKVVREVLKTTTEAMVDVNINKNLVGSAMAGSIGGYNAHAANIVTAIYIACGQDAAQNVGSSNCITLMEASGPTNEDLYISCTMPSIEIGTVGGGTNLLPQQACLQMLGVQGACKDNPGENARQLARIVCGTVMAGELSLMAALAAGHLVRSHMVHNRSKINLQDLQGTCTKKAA
Briefly: Immunoblotting of hepatic HMGCR protein (liver membrane fractions) of gavaged mice. It is filed as in vivo.

The structures appear in SMILES notation. “And” between values parts separate entries of the source, which are not always exact repeats. Equal entries are not always repeated.

Take `C=CCC(O)(CC=C)CCCC(C)C1CCC2C3C(O)C=C4C(C)(C)C(O)CCC4(C)C3CCC12C` (centres unmarked) [Cmpd 81]: in test [1], the “TC levels in liver, mean” value is reported as 3.712; the “TC levels in the serum, mean” value was 104.81; the “TG levels in liver, mean” value was determined as 12.3264; the “TG levels in the serum, mean” value is given as 55.4414. Besides, in test [1], the “TC levels in liver, individual mice” value is 3.732 and 3.964 and 3.655 and 3.864 and 3.346; the “TC levels in the serum, individual mice” value was 111 and 100.379 and 112.009 and 105.661 and 95; the “TG levels in liver, individual mice” value was 12.9147 and 9.311 and 13.437 and 16.1354 and 9.834; the “TG levels in the serum, individual mice” value is 60.1534 and 51.6317 and 49.6138 and 57.1457 and 58.6623. Besides, in test [1], the “total cholesterol (TC) and triglyceride (TG) levels in both serum and liver” value is listed as “significantly lowered”; the “cholesterol contents in VLDL, LDL and HDL (FPLC serum lipoprotein profile)” value was “reduced to similar levels”. Besides, the “liver HMGCR protein fold change, mean” value on HMGCR (C57BL/6J mice, chow diet, single agent 60 mg/kg/day gavage 10 days, vehicle = 1) came out at 0.5524. Besides, the “decrease of liver HMGCR amount” value at HMGCR (Cmpd 81 alone, 60 mg/kg/day, 10 days) was determined as 50%. For the same compound, the “decrease of liver HMGCR relative to lovastatin-treated samples” value at HMGCR (co-administration of Cmpd 81 with lovastatin, each 60 mg/kg/day, 10 days) is reported as over 13 fold. In addition, on HMGCR (mouse, in vivo), the “liver HMGCR protein fold change, mean” value is reported as ~ 2.
Regarding `CC[C@H](C)C(=O)O[C@H]1C[C@@H](C)C=C2C=C[C@H](C)[C@H](CC[C@@H]3C[C@@H](O)CC(=O)O3)[C@H]21` [Lovastatin, lovastatin], in test [1], the “TC levels in liver, mean” value is given as 3.624; the “TC levels in the serum, mean” value was 103.826; the “TG levels in liver, mean” value came out at 12.4726; the “TG levels in the serum, mean” value was 54.3007. Moreover, in test [1], the “TC levels in liver, individual mice” value was 3.3 and 3.747 and 3.618 and 3.824 and 3.629; the “TC levels in the serum, individual mice” value was 108.623 and 105.887 and 100.644 and 93.2834 and 110.692; the “TG levels in liver, individual mice” value was 14.0603 and 12.8492 and 8.103 and 12.4763 and 14.8742; the “TG levels in the serum, individual mice” value was 51.0844 and 48 and 54.6444 and 61.1304 and 56.6444. Also, in test [1], the “total cholesterol (TC) and triglyceride (TG) levels in both serum and liver” value is “significantly lowered”; the “cholesterol contents in VLDL, LDL and HDL (FPLC serum lipoprotein profile)” value was “reduced to similar levels”. On HMGCR (C57BL/6J mice, 60 mg/kg/day gavage once daily 7 days, vehicle = 1, 60 mg/kg/day), the “hepatic HMGCR protein level, mean” value was 58.4 ± 3.5 fold and 58.3968 fold. Further, the “hepatic HMGCR protein level, mean” value at HMGCR (C57BL/6J mice, 60 mg/kg/day gavage once daily 7 days, vehicle = 1, listed as lovastatin, 60 mg/kg/day) is listed as 58 fold. The “hepatic HMGCR protein level, individual mice” value at HMGCR (C57BL/6J mice, 60 mg/kg/day gavage once daily 7 days, vehicle mean = 1, 60 mg/kg/day) was 61.3526 and 59.2668 and 54.571. Also, at HMGCR (C57BL/6J mice, chow diet, single agent 60 mg/kg/day gavage 10 days, vehicle = 1, listed as Lova), the “liver HMGCR protein fold change, mean” value is recorded as 32.3047. Also, the “liver HMGCR protein fold change, mean” value on HMGCR (C57BL/6J mice, chow diet, single agent 60 mg/kg/day gavage 10 days, vehicle = 1, listed as lovastatin) is recorded as “more than 30”.
